Experimental data published in US8227613B2, “Heteroaryl carboxamide derivatives” (Hoffmann-La Roche Inc., priority 2008, dated 2012).

What follows are compounds tested against T1, human chemokine receptor 2 isoform B (CCR2B) (Homo sapiens, UniProt P41597) (assay: Calcium mobilization assay (FLIPR, MCP-1 stimulated CHOK1-CCR2B-A5 cells)). Conditions: 20 nM MCP-1, antagonist activity, read-out: IC50 (inhibitor concentration required for 50% inhibition of specific calcium increases).
T1 construct: host or cells: CHO-K1 (CHOK1-CCR2B-A5)
T1 sequence (P41597 1-360 isoform P41597-2): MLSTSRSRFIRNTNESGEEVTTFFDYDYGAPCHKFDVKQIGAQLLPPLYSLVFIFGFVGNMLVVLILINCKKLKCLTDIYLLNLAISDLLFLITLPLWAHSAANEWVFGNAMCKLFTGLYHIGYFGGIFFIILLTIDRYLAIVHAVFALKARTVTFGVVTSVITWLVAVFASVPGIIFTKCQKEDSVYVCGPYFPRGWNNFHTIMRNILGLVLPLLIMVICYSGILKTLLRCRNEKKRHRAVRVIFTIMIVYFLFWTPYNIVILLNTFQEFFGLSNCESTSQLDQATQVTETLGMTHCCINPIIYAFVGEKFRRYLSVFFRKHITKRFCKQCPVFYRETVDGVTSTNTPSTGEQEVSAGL
Format: cell-based
Description: Calcium Mobilization Assay
CHOK1-CCR2B-A5 cells (from Euroscreen) stably overexpressing the human chemokine receptor 2 isoform B were cultured in Nutrient Hams F12 medium supplemented with 5% FBS, 100 U/ml penicillin, 100 μg/ml streptomycin, 400 μg/ml G418 and 5 μg/ml puromycin.
For the assay cells were grown overnight in 384-well black clear flat bottom polystyrene plates (Costar) at 37° C. at 5% CO2. After washing with DMEM, 20 mM Hepes, 2.5 mM probenecid, 0.1% BSA (DMEM assay buffer) cells were loaded with 4 μM Fluo-4 in the same DMEM assay buffer for 2 hours at 30° C. Excess dye was removed and cells were washed with DMEM assay buffer. 384-well compound plates were prepared with DMEM assay buffer/0.5% DMSO with or without various concentrations of test compounds. Usually compounds were tested for agonist and antagonist activity.
Test compounds were added to the assay plate and agonist activity was monitored as fluorescence for 80 seconds with a FLIPR (488 nm excitation; 510-570 nm emission; Molecular Devices). After 20-30 min. of incubation at 30° C., 20 nM MCP-1 (R&D; Roche) was added and fluorescence was monitored again for 80 seconds. Increases in intracellular calcium are reported as maximum fluorescence after agonist exposure minus basal fluorescence before exposure. Antagonist activity is indicated as inhibitor concentration required for 50% inhibition of specific calcium increases.

| Structure (SMILES) | IC50 [nM] |
| --- | --- |
| Cc1cc(-c2cccc(C(F)(F)F)c2)cnc1C(=O)N1CCC(N2CCCC2)CC1 [Example 1, [3-Methyl-5-(3-trifluoromethyl-phenyl)-pyridin-2-yl]-(4-pyrrolidin-1-yl-piperidin-1-yl)-methanone] | 18 |
| Cc1cc(-c2cccc(C(F)(F)F)c2)c[n+]([O-])c1C(=O)N1CCC(N2CCCC2)CC1 [Example 2, [3-Methyl-1-oxy-5-(3-trifluoromethyl-phenyl)-pyridin-2-yl]-(4-pyrrolidin-1-yl-piperidin-1-yl)-methanone] | 23 |
| Cc1cc(-c2cccc(C(F)(F)F)c2)cnc1C(=O)N1CCC(N2CCC[C@H]2CO)CC1 [Example 5, [4-((S)-2-Hydroxymethyl-pyrrolidin-1-yl)-piperidin-1-yl]-[3-methyl-5-(3-trifluoromethyl-phenyl)-pyridin-2-yl]-methanone] | 21 |
| COc1ccc(CNc2nc(C(=O)N3CCC(N4CCCC4)CC3)c(C)cc2-c2cccc(C(F)(F)F)c2)cc1 [Example 6, [6-(4-Methoxy-benzylamino)-3-methyl-5-(3-trifluoromethyl-phenyl)-pyridin-2-yl]-(4-pyrrolidin-1-yl-piperidin-1-yl)-methanone] | 130 |
| Cc1cc(-c2cccc(C(F)(F)F)c2)c(N)nc1C(=O)N1CCC(N2CCCC2)CC1 [Example 7, [6-Amino-3-methyl-5-(3-trifluoromethyl-phenyl)-pyridin-2-yl]-(4-pyrrolidin-1-yl-piperidin-1-yl)-methanone] | 16 |
| COc1nc(C(=O)N2CCC(N3CCCC3)CC2)c(C)cc1-c1cccc(C(F)(F)F)c1 [Example 8, [6-Methoxy-3-methyl-5-(3-trifluoromethyl-phenyl)-pyridin-2-yl]-(4-pyrrolidin-1-yl-piperidin-1-yl)-methanone] | 65 |
| CC(=O)N(C(C)=O)c1nc(C(=O)N2CCC(N3CCCC3)CC2)c(C)cc1-c1cccc(C(F)(F)F)c1 [Example 10, N-Acetyl-N-[5-methyl-6-(4-pyrrolidin-1-yl-piperidine-1-carbonyl)-3-(3-trifluoromethyl-phenyl)-pyridin-2-yl]-acetamide] | 78 |
| CC(=O)Nc1nc(C(=O)N2CCC(N3CCCC3)CC2)c(C)cc1-c1cccc(C(F)(F)F)c1 [Example 11, N-[5-Methyl-6-(4-pyrrolidin-1-yl-piperidine-1-carbonyl)-3-(3-trifluoromethyl-phenyl)-pyridin-2-yl]-acetamide] | 71 |
| Cc1cc(-c2cccc(C(F)(F)F)c2)n(C)c(=O)c1C(=O)N1CCC(N2CCCC2)CC1 [Example 13, 1,4-Dimethyl-3-(4-pyrrolidin-1-yl-piperidine-1-carbonyl)-6-(3-trifluoromethyl-phenyl)-1H-pyridin-2-one] | 58 |
| O=C(c1ncc(-c2cccc(C(F)(F)F)c2)cc1-c1cccc(C(F)(F)F)c1)N1CCC(N2CCCC2)CC1 [Example 15, [3,5-Bis-(3-trifluoromethyl-phenyl)-pyridin-2-yl]-(4-pyrrolidin-1-yl-piperidin-1-yl)-methanone] | 250 |
| Cc1cc(-c2cccc(C(F)(F)F)c2)nc(N)c1C(=O)N1CCC(N2CCCC2)CC1 [Example 19, [2-Amino-4-methyl-6-(3-trifluoromethyl-phenyl)-pyridin-3-yl]-(4-pyrrolidin-1-yl-piperidin-1-yl)-methanone] | 64 |
| COc1nc(C(=O)N2CCC(N3CCCC3)CC2)c(Cl)cc1-c1cccc(C(F)(F)F)c1 [Example 22, [3-Chloro-6-methoxy-5-(3-trifluoromethyl-phenyl)-pyridin-2-yl]-(4-pyrrolidin-1-yl-piperidin-1-yl)-methanone] | 18 |
| O=C(c1nc(O)c(-c2cccc(C(F)(F)F)c2)cc1Cl)N1CCC(N2CCCC2)CC1 [Example 23, [3-Chloro-6-hydroxy-5-(3-trifluoromethyl-phenyl)-pyridin-2-yl]-(4-pyrrolidin-1-yl-piperidin-1-yl)-methanone; 5-Chloro-6-(4-pyrrolidin-1-yl-piperidine-1-carbonyl)-3-(3-trifluoromethyl-phenyl)-1H-pyridin-2-one (tautomers)] | 41 |
| Cc1cc(-c2cccc(C(F)(F)F)c2)c(NCCN)nc1C(=O)N1CCC(N2CCCC2)CC1 [Example 26, [6-(2-Amino-ethylamino)-3-methyl-5-(3-trifluoromethyl-phenyl)-pyridin-2-yl]-(4-pyrrolidin-1-yl-piperidin-1-yl)-methanone] | 67 |
| Cc1cc(-c2cccc(C(F)(F)F)c2)c(NCCO)nc1C(=O)N1CCC(N2CCCC2)CC1 [Example 27, [6-(2-Hydroxy-ethylamino)-3-methyl-5-(3-trifluoromethyl-phenyl)-pyridin-2-yl]-(4-pyrrolidin-1-yl-piperidin-1-yl)-methanone] | 41 |
| Cc1cc(-c2ccc(Cl)c(Cl)c2)cnc1C(=O)N1CCC(N2CCCC2)CC1 [Example 28, [5-(3,4-Dichloro-phenyl)-3-methyl-pyridin-2-yl]-(4-pyrrolidin-1-yl-piperidin-1-yl)-methanone] | 250 |
| Cc1cc(-c2cc(C(F)(F)F)ccc2Cl)cnc1C(=O)N1CCC(N2CCCC2)CC1 [Example 30, [5-(2-Chloro-5-trifluoromethyl-phenyl)-3-methyl-pyridin-2-yl]-(4-pyrrolidin-1-yl-piperidin-1-yl)-methanone] | 54 |
| Cc1cc(-c2cc(C(F)(F)F)ccc2F)cnc1C(=O)N1CCC(N2CCCC2)CC1 [Example 31, [5-(2-Fluoro-5-trifluoromethyl-phenyl)-3-methyl-pyridin-2-yl]-(4-pyrrolidin-1-yl-piperidin-1-yl)-methanone] | 25 |
| Cc1cc(-c2cccc(C(F)(F)F)c2)c(-c2cnn[nH]2)nc1C(=O)N1CCC(N2CCCC2)CC1 [Example 32, [3-Methyl-6-(1H-[1,2,3]triazol-4-yl)-5-(3-trifluoromethyl-phenyl)-pyridin-2-yl]-(4-pyrrolidin-1-yl-piperidin-1-yl)-methanone] | 23 |

The next compounds have a lower IC50 than those just listed; values first:

| IC50 [nM] | Structure (SMILES) |
| --- | --- |
| 4 | Cc1cc(-c2cccc(C(F)(F)F)c2)c(Cl)nc1C(=O)N1CCC(N2CCCC2)CC1 [Example 3, [6-Chloro-3-methyl-5-(3-trifluoromethyl-phenyl)-pyridin-2-yl]-(4-pyrrolidin-1-yl-piperidin-1-yl)-methanone] |
| 6.4 | Cc1cc(-c2cccc(C(F)(F)F)c2)c(O)nc1C(=O)N1CCC(N2CCCC2)CC1 [Example 9, [6-Hydroxy-3-methyl-5-(3-trifluoromethyl-phenyl)-pyridin-2-yl]-(4-pyrrolidin-1-yl-piperidin-1-yl)-methanone; 5-Methyl-6-(4-pyrrolidin-1-yl-piperidine-1-carbonyl)-3-(3-trifluoromethyl-phenyl)-1H-pyridin-2-one (tautomers)] |
| 12 | O=C(c1ncc(-c2cccc(C(F)(F)F)c2)cc1Cl)N1CCC(N2CCCC2)CC1 [Example 14, [3-Chloro-5-(3-trifluoromethyl-phenyl)-pyridin-2-yl]-(4-pyrrolidin-1-yl-piperidin-1-yl)-methanone] |
| 4.2 | Cc1cc(-c2cccc(C(F)(F)F)c2)c(-c2cccnc2)nc1C(=O)N1CCC(N2CCCC2)CC1 [Example 16, [5-Methyl-3-(3-trifluoromethyl-phenyl)-[2,3′]bipyridinyl-6-yl]-(4-pyrrolidin-1-yl-piperidin-1-yl)-methanone] |
| 8.7 | Cc1cc(-c2cccc(C(F)(F)F)c2)c(-c2cncnc2)nc1C(=O)N1CCC(N2CCCC2)CC1 [Example 17, [3-Methyl-6-pyrimidin-5-yl-5-(3-trifluoromethyl-phenyl)-pyridin-2-yl]-(4-pyrrolidin-1-yl-piperidin-1-yl)-methanone] |
| 4 | Cc1cc(-c2cccc(C(F)(F)F)c2)c(-n2cnc(Cl)n2)nc1C(=O)N1CCC(N2CCCC2)CC1 [Example 20, [6-(3-Chloro-[1,2,4]triazol-1-yl)-3-methyl-5-(3-trifluoromethyl-phenyl)-pyridin-2-yl]-(4-pyrrolidin-1-yl-piperidin-1-yl)-methanone] |
| 3.2 | O=C(c1nc(Cl)c(-c2cccc(C(F)(F)F)c2)cc1Cl)N1CCC(N2CCCC2)CC1 [Example 21, [3,6-Dichloro-5-(3-trifluoromethyl-phenyl)-pyridin-2-yl]-(4-pyrrolidin-1-yl-piperidin-1-yl)-methanone] |
| 4.8 | C#Cc1nc(C(=O)N2CCC(N3CCCC3)CC2)c(C)cc1-c1cccc(C(F)(F)F)c1 [Example 24, [6-Ethynyl-3-methyl-5-(3-trifluoromethyl-phenyl)-pyridin-2-yl]-(4-pyrrolidin-1-yl-piperidin-1-yl)-methanone] |
| 2.3 | Cc1cc(-c2cccc(C(F)(F)F)c2)c(-n2cncn2)nc1C(=O)N1CCC(N2CCCC2)CC1 [Example 25, [3-Methyl-6-[1,2,4]triazol-1-yl-5-(3-trifluoromethyl-phenyl)-pyridin-2-yl]-(4-pyrrolidin-1-yl-piperidin-1-yl)-methanone] |
